Reference: patent US20230295115A1, “SUBSTITUTED ISOQUINOLINYLMETHYL AMIDES, ANALOGUES THEREOF, AND METHODS USING SAME” (priority 2020, published 2023)

These compounds were tested on HBV rcDNA (assay: HepDE19 assay with bDNA quantitation of HBV rcDNA). Details: HepDE19 cells, 7 day incubation, rcDNA measured by Quantigene 2.0 bDNA assay, top concentration 25 μM; read-out: DE-19bDNA EC50.
Assay type: cell-based, hepatitis B virus (HBV)
Protocol: HepDE19 assay with bDNA quantitation of HBV rcDNA:
HepDE19 (50,000 cells/well) were plated in 96-well collagen-coated tissue-culture treated microtiter plates in DMEM/F12 medium supplemented with 10% fetal bovine serum, 1% penicillin-streptomycin and 1 μg/mL tetracycline and incubated in a humidified incubator at 37° C. and 5% CO2 overnight. Next day, the cells were switched to fresh medium without tetracycline and incubated for 4 hours at 37° C. and 5% CO2. […] The final DMSO concentration in the assay was 0.5%. The plates were incubated for 7 days in a humidified incubator at 37° C. and 5% CO2. Following a 7 day-incubation, the level of rcDNA present in the inhibitor-treated wells was measured using a Quantigene 2.0 bDNA assay kit (Affymetrix, Santa Clara, CA) with HBV specific custom probe set and manufacturers instructions. Concurrently, the effect of compounds on cell viability was assessed using replicate plates, plated at a density of 5,000 cells/well and incubated for 4 days, to determine the ATP content as a measure of cell viability using the cell-titer glo reagent (CTG; Promega Corporation, Madison, WI) as per manufacturer's instructions.

SMILES	EC50
CC(c1c[nH]c(=O)c2cc(F)c(F)cc12)N(C)C(=O)[C@H]1Cc2ccccc2N1 (single isomer, unassigned) [Compound 22]	3.7 µM
CC(c1c[nH]c(=O)c2cc(F)c(F)cc12)N(C)C(=O)c1nc2ccccc2[nH]1 (single isomer, unassigned) [Compound 23, N-(1-(6,7-Difluoro-1-oxo-1,2-dihydroisoquinolin-4-yl)ethyl)-N-methyl-1H-benzo[d]imidazole-2-carboxamide]	≥ 25 µM
CC(c1c[nH]c(=O)c2cc(F)c(F)cc12)N(C)C(=O)c1nc2ccccc2[nH]1 (single isomer, unassigned) [Compound 24, N-(1-(6,7-Difluoro-1-oxo-1,2-dihydroisoquinolin-4-yl)ethyl)-N-methyl-1H-benzo[d]imidazole-2-carboxamide]	0.76 µM
CC(c1c[nH]c(=O)c2cc(F)c(F)cc12)N(C)C(=O)c1cc2ccccc2o1 (single isomer, unassigned) [Compound 25, N-(1-(6,7-Difluoro-1-oxo-1,2-dihydroisoquinolin-4-yl)ethyl)-N-methylbenzofuran-2-carboxamide]	17 µM
CC(c1c[nH]c(=O)c2cc(F)c(F)cc12)N(C)C(=O)c1cc2ccccc2o1 (single isomer, unassigned) [Compound 26, N-(1-(6,7-Difluoro-1-oxo-1,2-dihydroisoquinolin-4-yl)ethyl)-N-methylbenzofuran-2-carboxamide]	0.35 µM
CC(c1c[nH]c(=O)c2cc(F)c(F)cc12)N(CCCO)C(=O)c1cc2ccccc2[nH]1 (single isomer, unassigned) [Compound 27, N-(1-(6,7-Difluoro-1-oxo-1,2-dihydroisoquinolin-4-yl)ethyl)-N-(3-hydroxypropyl)-1H-indole-2-carboxamide]	2.9 µM
CC(c1c[nH]c(=O)c2cc(F)c(F)cc12)N(CCCO)C(=O)c1cc2ccccc2[nH]1 (single isomer, unassigned) [Compound 28, N-(1-(6,7-Difluoro-1-oxo-1,2-dihydroisoquinolin-4-yl)ethyl)-N-(3-hydroxypropyl)-1H-indole-2-carboxamide]	0.04 µM
CC(c1c[nH]c(=O)c2cc(F)c(F)cc12)N(C)C(=O)[C@@H]1Cc2ccccc2N1 (single isomer, unassigned) [Compound 30]	0.02 µM
CC(c1c[nH]c(=O)c2cc(F)c(F)cc12)N(C)C(=O)[C@@H]1Cc2ccccc2N1 (single isomer, unassigned) [Compound 31]	20 µM
CC(c1c[nH]c(=O)c2cc(F)c(F)cc12)N(C)C(=O)[C@H]1Cc2ccccc2CN1 (single isomer, unassigned) [Compound 32]	≥ 25 µM
CC(c1c[nH]c(=O)c2cc(F)c(F)cc12)N(C)C(=O)[C@H]1Cc2ccccc2CN1 (single isomer, unassigned) [Compound 33]	6.6 µM
CC(c1c[nH]c(=O)c2cc(F)c(F)cc12)N(C)C(=O)c1cc2ccccc2n1C (single isomer, unassigned) [Compound 43, N-(1-(6,7-Difluoro-1-oxo-1,2-dihydroisoquinolin-4-yl)ethyl)-N,1-dimethyl-1H-indole-2-carboxamide]	4.3 µM
CC(c1c[nH]c(=O)c2cc(F)c(F)cc12)N(C)C(=O)c1cc2ccccc2n1C (single isomer, unassigned) [Compound 44, N-(1-(6,7-Difluoro-1-oxo-1,2-dihydroisoquinolin-4-yl)ethyl)-N,1-dimethyl-1H-indole-2-carboxamide]	0.3 µM
CC(c1c[nH]c(=O)c2cc(F)c(F)cc12)N(C)C(=O)c1cn2ccccc2n1 (single isomer, unassigned) [Compound 45, N-(1-(6,7-Difluoro-1-oxo-1,2-dihydroisoquinolin-4-yl)ethyl)-N-methylimidazo[1,2-a]pyridine-2-carboxamide]	2.5 µM
CC(c1c[nH]c(=O)c2cc(F)c(F)cc12)N(C)C(=O)c1cn2ccccc2n1 (single isomer, unassigned) [Compound 46, N-(1-(6,7-Difluoro-1-oxo-1,2-dihydroisoquinolin-4-yl)ethyl)-N-methylimidazo[1,2-a]pyridine-2-carboxamide]	21 µM
CC(c1c[nH]c(=O)c2cc(F)c(F)cc12)N(C)C(=O)c1cc2c([nH]1)CCC2 (single isomer, unassigned) [Compound 47, N-(1-(6,7-Difluoro-1-oxo-1,2-dihydroisoquinolin-4-yl)ethyl)-N-methyl-1,4,5,6-tetrahydro cyclopenta[b]pyrrole-2-carboxamide]	≥ 25 µM
CC(c1c[nH]c(=O)c2cc(F)c(F)cc12)N(C)C(=O)c1cc2c([nH]1)CCC2 (single isomer, unassigned) [Compound 48, N-(1-(6,7-Difluoro-1-oxo-1,2-dihydroisoquinolin-4-yl)ethyl)-N-methyl-1,4,5,6-tetrahydro cyclopenta[b]pyrrole-2-carboxamide]	0.15 µM
CC(c1c[nH]c(=O)c2cc(F)c(F)cc12)N(C)C(=O)c1nc2cc(F)c(F)cc2[nH]1 (single isomer, unassigned) [Compound 49, N-(1-(6,7-Difluoro-1-oxo-1,2-dihydroisoquinolin-4-yl)ethyl)-5,6-difluoro-N-methyl-1H-benzo[d]imidazole-2-carboxamide]	3.1 µM
CC(c1c[nH]c(=O)c2cc(F)c(F)cc12)N(C)C(=O)c1nc2cc(F)c(F)cc2[nH]1 (single isomer, unassigned) [Compound 50, N-(1-(6,7-Difluoro-1-oxo-1,2-dihydroisoquinolin-4-yl)ethyl)-5,6-difluoro-N-methyl-1H-benzo[d]imidazole-2-carboxamide]	0.29 µM
CC(c1c[nH]c(=O)c2cc(F)c(F)cc12)N(C)C(=O)c1c[nH]c2ccccc12 (single isomer, unassigned) [Compound 53, N-(1-(6,7-Difluoro-1-oxo-1,2-dihydroisoquinolin-4-yl)ethyl)-N-methyl-1H-indole-3-carboxamide]	≥ 25 µM
CC(c1c[nH]c(=O)c2cc(F)c(F)cc12)N(C)C(=O)c1c[nH]c2ccccc12 (single isomer, unassigned) [Compound 54, N-(1-(6,7-Difluoro-1-oxo-1,2-dihydroisoquinolin-4-yl)ethyl)-N-methyl-1H-indole-3-carboxamide]	5.1 µM
CC(c1c[nH]c(=O)c2cc(F)c(F)cc12)N(C)C(=O)c1n[nH]c2ccccc12 (single isomer, unassigned) [Compound 56, N-(1-(6,7-Difluoro-1-oxo-1,2-dihydroisoquinolin-4-yl)ethyl)-N-methyl-2H-indazole-3-carboxamide]	≥ 25 µM
CC(c1c[nH]c(=O)c2c(F)c(F)ccc12)N(C)C(=O)c1cc2c([nH]1)CCC2 (single isomer, unassigned) [Compound 57, N-(1-(7,8-Difluoro-1-oxo-1,2-dihydroisoquinolin-4-yl)ethyl)-N-methyl-1,4,5,6-tetrahydrocyclopenta[b]pyrrole-2-carboxamide]	12 µM
CC(c1c[nH]c(=O)c2c(F)c(F)ccc12)N(C)C(=O)c1cc2c([nH]1)CCC2 (single isomer, unassigned) [Compound 58, N-(1-(7,8-Difluoro-1-oxo-1,2-dihydroisoquinolin-4-yl)ethyl)-N-methyl-1,4,5,6-tetrahydrocyclopenta[b]pyrrole-2-carboxamide]	1.8 µM

Same assay, conditions: Hepatitis B virus, HepDE19, 168 h, HepDE19 cells, 7 day incubation, rcDNA measured by Quantigene 2.0 bDNA assay, top concentration 25 μM; read-out: DE-19bDNA EC50

SMILES	EC50
CC(c1c[nH]c(=O)c2cc(F)c(F)cc12)N(C)C(=O)c1n[nH]c2ccccc12 (single isomer, unassigned) [Compound 55, N-(1-(6,7-Difluoro-1-oxo-1,2-dihydroisoquinolin-4-yl)ethyl)-N-methyl-2H-indazole-3-carboxamide]	16 µM
CC(c1c[nH]c(=O)c2cc(F)c(F)cc12)N(C)C(=O)c1cc2ccccn2c1 (single isomer, unassigned) [Compound 70, N-(1-(6,7-Difluoro-1-oxo-1,2-dihydroisoquinolin-4-yl)ethyl)-N-methylindolizine-2-carboxamide]	0.02 µM

Same assay, conditions: read-out: DE-19bDNA EC50; HepDE19 cells, 7 day incubation, rcDNA measured by Quantigene 2.0 bDNA assay, top concentration 25 μM

SMILES	EC50
CC(c1c[nH]c(=O)c2cc(F)c(F)cc12)N(C)C(=O)c1cc2cccnc2[nH]1 (single isomer, unassigned) [Compound 51, N-(1-(6,7-Difluoro-1-oxo-1,2-dihydroisoquinolin-4-yl)ethyl)-N-methyl-1H-pyrrolo[2,3-b]pyridine-2-carboxamide]	0.79 µM
CC(c1c[nH]c(=O)c2cc(F)c(F)cc12)N(C)C(=O)c1cc2cccnc2[nH]1 (single isomer, unassigned) [Compound 52, N-(1-(6,7-Difluoro-1-oxo-1,2-dihydroisoquinolin-4-yl)ethyl)-N-methyl-1H-pyrrolo[2,3-b]pyridine-2-carboxamide]	≥ 25 µM
CC(c1c[nH]c(=O)c2cc(F)c(F)cc12)N(C)C(=O)c1cc2ccccn2c1 (single isomer, unassigned) [Compound 69, N-(1-(6,7-Difluoro-1-oxo-1,2-dihydroisoquinolin-4-yl)ethyl)-N-methylindolizine-2-carboxamide]	5.7 µM
CC(c1c[nH]c(=O)c2c(F)c(F)ccc12)N(C)C(=O)c1cc2ccccn2c1 (single isomer, unassigned) [Compound 71, N-(1-(7,8-Difluoro-1-oxo-1,2-dihydroisoquinolin-4-yl)ethyl)-N-methylindolizine-2-carboxamide]	6.5 µM
